Read-outs that look alike come from different tables or passages of the source.
Key:
[1] = tested on: Huntingtin (HTT) transcripts; assay: Quantitative splicing assay (HTT), qPCR; format: cell-based; conditions: Homo sapiens, GM04724 (CAG 70/20) Huntington's disease patient lymphoblasts, 24 h
Method in brief: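 GM04724 HD patient lymphoblasts (CAG 70/20) dosed 24 h with compound from 2.5 uM to 0.15 nM (0.1% DMSO). Lysates converted to cDNA; TaqMan qPCR measured compound-induced inclusion of a cryptic exon in HTT intron 49.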

mHTT protein = mHTT protein assay (2B7-MW1, Mesoscale Discovery); format: cell-based, human; conditions: GM04724 (CAG 70/20) Huntington's disease patient lymphoblast cells, 48 hours, 2B7-MW1 MSD; read-out: HTT Potency - Protein EC50 mHTT (average)
Method in brief: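 GM04724 Huntington's patient lymphoblasts (CAG 70/20) were treated for 48 h at 10 μM to 0.6 nM. mHTT was quantified by 2B7-MW1 MSD immunoassay, whose signal depends on polyQ expansion and HTT fragment size. Viability was run on a parallel plate by CellTiter-Glo.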

[2] = tested on: MDR1-MDCK cell monolayers; assay: MDCK-MDR1 permeability assay (BBB penetration potential); format: in vitro ADME; conditions: dog, MDCK-MDR1, 120 min, 5 μM, pH 7.4
Experimental: (§1) Each determination is performed in duplicate. […] Analytical conditions are outlined below.

MDR1 = assay: as above; format: in vitro ADME; conditions: dog; for efflux ratio at 120 min, 5 μM: MDCK-MDR1, pH 7.4, MDCK-MDR1: Efflux; for Papp A→B at 120 min, 5 μM: MDCK-MDR1, pH 7.4, MDCK-MDR1: Papp A-B; for Papp B→A at 120 min, 5 μM: MDCK-MDR1, pH 7.4, MDCK-MDR1: Papp B-A
Experimental: as §1

[3] = qPCR HTTex49_50, read-out: HTT Potency - Splicing: E49-50 EC50 (average)
[4] = qPCR cryptic exon 49b inclusion, read-out: HTT Potency - Splicing: E49b EC50 (average)

Compound	EC50 [1, 3] [nM]	EC50 [1, 4] [nM]	EC50 (mHTT protein) [nM]	MDCK-MDR1: % Recov A-B [2] [%]	MDCK-MDR1: % Recov B-A [2] [%]	efflux ratio at 120 min, 5 μM (MDR1)	Papp A→B at 120 min, 5 μM (MDR1) [×10⁻⁶ cm/s]	Papp B→A at 120 min, 5 μM (MDR1) [×10⁻⁶ cm/s]	MDCK-MDR1: Efflux [2]	MDCK-MDR1: Papp A-B [2]	MDCK-MDR1: Papp B-A [2]
Oc1cc(-c2nnco2)ccc1-c1ccc(O[C@H]2C[C@@H]3CCC[C@@H](N3)[C@H]2F)nn1 (single isomer, unassigned) [117-ENT2]	101 to 500	101 to 500	16 to 50	78	93	5	7.22	37.9			
Cn1cc(-c2cc(O)c(-c3ccc(O[C@@H]4C[C@H]5CCC[C@H](N5)[C@@H]4F)nn3)cc2F)cn1 (single isomer, unassigned) [82-ENT1]	0.01 to 15	0.01 to 15	0.01 to 15	45	72	4	4.12	16.8			
Cn1cc(-c2ccc(-c3ccc(O[C@@H]4C[C@H]5CC[C@H](N5)[C@@H]4F)nn3)c(O)c2)cn1 (single isomer, unassigned) [60-ENT1]	51 to 100	16 to 50	16 to 50	68	84	4	7.46	30.5			
Oc1cc(-n2cccn2)ccc1-c1ccc(O[C@H]2C[C@@H]3CC[C@@H](N3)[C@H]2F)nn1 (single isomer, unassigned) [35-ENT2]	101 to 500	101 to 500	51 to 100	62	68	4	6.25	24			
Oc1cc(-c2cn[nH]c2)ccc1-c1ccc(O[C@@H]2C[C@H]3CC[C@H](N3)[C@H]2F)nn1 (single isomer, unassigned) [43-ENT2]	16 to 50	16 to 50	0.01 to 15	83	84	9	6.27	58.7			
Oc1cc(-c2nncs2)ccc1-c1ccc(O[C@H]2C[C@@H]3CCC[C@@H](N3)[C@H]2F)nn1 (single isomer, unassigned) [116-ENT2]	101 to 500	101 to 500	16 to 50	90	95	5	11.3	61.4			
Cn1cc(-c2ccc(-c3ccc(O[C@@H]4C[C@H]5CCC[C@H](N5)[C@@H]4F)nn3)c(O)c2)cn1 (single isomer, unassigned) [1-ENT1]	16 to 50	16 to 50	0.01 to 15	85	84	6	6.16	37.9			
Cc1cc(-c2ccc(-c3ccc(O[C@@H]4C[C@H]5CCC[C@H](N5)[C@@H]4F)nn3)c(O)c2)ccn1 (single isomer, unassigned) [88-ENT1]	16 to 50	16 to 50	16 to 50	51	64	3	7.03	22.1			
Cn1cc(-c2ccc(-c3ccc(O[C@@H]4C[C@@]5(C)CC[C@](C)(N5)[C@@H]4F)nn3)c(O)c2)cn1 (single isomer, unassigned) [150-ENT2]	16 to 50	16 to 50	16 to 50	78	87	4	9.06	38.6			
Cn1ccc2cc(O)c(-c3ccc(O[C@H]4C[C@@H]5CCC[C@@H](N5)[C@H]4F)nn3)cc2c1=O (single isomer, unassigned) [128-ENT1]	51 to 100	51 to 100	16 to 50			7	5.27	38.6	11	5.78 10^−6, cm/s	65.2 10^−6, cm/s
C[C@@]12CC[C@@](C)(N1)[C@@H](F)[C@@H](Oc1ccc(-c3ccc(-c4cn[nH]c4)cc3O)nn1)C2 (single isomer, unassigned) [2-ENT2]	0.01 to 15	0.01 to 15	0.01 to 15	90	87	3	14.5	46.4			
Oc1cc(-c2cn[nH]c2)ccc1-c1ccc(O[C@@H]2C[C@H]3CCC[C@H](N3)[C@@H]2F)nn1 (single isomer, unassigned) [40-ENT2]	0.01 to 15	0.01 to 15	0.01 to 15	80	83	17	2.47	41.6			
Cn1ccc(-c2ccc(-c3ccc(O[C@H]4C[C@@H]5CCC[C@@H](N5)[C@H]4F)nn3)c(O)c2)n1 (single isomer, unassigned) [68-ENT2]	16 to 50	16 to 50	101 to 500	76	89	4	8.23	31.6			
Cn1ccc(-c2ccc(-c3ccc(O[C@@H]4C[C@H]5CCC[C@H](N5)[C@@H]4F)nn3)c(O)c2)n1 (single isomer, unassigned) [68-ENT1]	16 to 50	16 to 50	16 to 50	87	79	6	8.61	51.9			

From US12522597B2, “Methods and compositions for modulating splicing” (Skyhawk Therapeutics, Inc., priority 2019, dated 2026)
